Reference: PubChem BioAssay (NCI)
“And” between values parts separate entries of the source, which are not always exact repeats. Equal values may be shown once.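 Dose response: 5 concentrations. Exposure: 48 h. Format: 96-well plates. Endpoint: linear interpolation; highest concentration if not reached. The concentration for 50% growth inhibition is given as GI50. The concentration for full growth arrest is given as TGI.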

Tests used:
Test in all cases: NCI tumour cell line growth inhibition, 48 h
[1] = test system: SR leukemia
[2] = test system: OVCAR-5 ovarian
[3] = test system: SNB-75 CNS
[4] = test system: SF-268 CNS
[5] = test system: KM12 colon
[6] = test system: SF-295 CNS
[7] = test system: 786-0 renal
[8] = test system: SK-MEL-5 melanoma
[9] = test system: RPMI-8226 leukemia
[10] = test system: COLO 205 colon

SMILES	GI50 [1]	TGI [1]	GI50 [2]	TGI [2]	TGI [3]	GI50 [4]	TGI [4]	GI50 [5]	TGI [5]	GI50 [6]	TGI [6]	GI50 [7]	TGI [7]	GI50 [8]	TGI [8]	GI50 [9]	TGI [9]	GI50 [10]	TGI [10]	GI50 [3]
O=c1ccn(C2OC(CO)C(O)C2F)c(=O)[nH]1 (centres undefined)	> 1000 µM	> 1000 µM	> 1000 µM	> 1000 µM	> 100 µM	> 1000 µM	> 1000 µM	> 1000 µM	> 1000 µM	> 1000 µM	> 1000 µM	> 1000 µM	> 1000 µM	> 1000 µM	> 1000 µM	> 1000 µM	> 1000 µM	> 1000 µM	> 1000 µM	–
CC12OC(c3ccccc3)=CC(c3ccc(Cl)cc3)=C1C(c1ccccc1)=CC2=O (centres undefined)	19.1 µM	67 µM	> 100 µM	> 100 µM	> 100 µM	> 100 µM	> 100 µM	71.8 µM	> 100 µM	25 µM	> 100 µM	94.7 µM	> 100 µM	42.1 µM	> 100 µM	17.3 µM	47.2 µM	64.9 µM	> 100 µM	33.4 µM
Cc1ccccc1NC(=O)N/C(N)=N/c1nc(-c2cccc([N+](=O)[O-])c2)cs1	0.594 µM	> 100 µM	4.34 µM	> 100 µM	3.62 µM	2.67 µM	8.88 µM	2.49 µM	> 100 µM	1.53 µM	3.62 µM	2.21 µM	4.55 µM	1.88 µM	5.15 µM	3.09 µM	> 100 µM	3.89 µM	> 100 µM	1.28 µM
COc1cc(C(=O)/C(C)=C/c2c[nH]c3ccccc23)cc(OC)c1OC	0.00333 µM	–	0.0842 µM	> 100 µM	16.1 µM	0.00544 µM	10.6 µM	0.00359 µM	–	0.00298 µM	1.61 µM	0.00639 µM	> 100 µM	0.00428 µM	0.0205 µM	0.00482 µM	4.55 µM	0.00354 µM	0.0159 µM	0.00334 µM
CC[C@H](NC(=O)[C@H](C)NC)C(=O)N1C[C@@H](O)C[C@H]1Cc1c(-c2[nH]c3cc(F)ccc3c2C[C@@H]2C[C@H](O)CN2C(=O)[C@H](CC)NC(=O)[C@H](C)NC)[nH]c2cc(F)ccc12	15.5 µM	> 100 µM	> 100 µM	> 100 µM	> 100 µM	> 100 µM	> 100 µM	> 100 µM	> 100 µM	> 100 µM	> 100 µM	> 100 µM	> 100 µM	26.2 µM	> 53.8 µM	12.8 µM	98 µM	> 55.8 µM	> 100 µM	2.65 µM
CC(=O)CC(=O)Nc1ccc2ccccc2c1	–	> 100 µM	–	> 100 µM	> 100 µM	–	> 100 µM	–	> 100 µM	–	> 100 µM	–	> 100 µM	–	> 100 µM	–	> 100 µM	–	> 100 µM	–
COC(=O)CCc1cc(OC)c2c(c1)C(C(=O)OC)C(c1ccc(OC)c(OC)c1)O2 (centres undefined)	–	> 100 µM	–	> 100 µM	50.6 µM	> 100 µM and 37.9 µM	> 100 µM	> 100 µM and 19.6 µM	> 100 µM	> 100 µM and 17.1 µM	> 100 µM	> 100 µM and 40.9 µM	> 100 µM	> 100 µM and 12 µM	> 100 µM	> 100 µM and 22.3 µM	> 100 µM	> 100 µM and 21.6 µM	> 100 µM	–
CCCCc1c2c(nc3c1CCC/C3=C\c1ccccc1)C(=O)CCC2	–	36.6 µM	–	43.1 µM	84.5 µM	–	44.3 µM	–	51.8 µM	–	40.3 µM	–	60.9 µM	–	30.4 µM	–	45.4 µM	–	48.6 µM	–
CCCCCCCCC[C@@H]1CC(=O)OCC2OC(O[C@H](CCCCCCCCC)CC(=O)OCC3OC(O[C@H](CCCCCCCCC)CC(=O)OCC4OC(O1)C(O)C(O)C4O)C(O)C(O)C3O)C(O)C(O)C2O (some centres undefined)	–	20.6 µM	–	22.5 µM	22.5 µM	–	7.74 µM	–	20.2 µM	–	27.1 µM	–	16.2 µM	–	25.5 µM	–	32.7 µM	–	8.3 µM	–
CCN1CCN(C(=O)[C@]23CC[C@@H](C)[C@H](C)[C@@H]2C2=CC[C@@H]4[C@@]5(C)C/C(=C/c6ccncc6)C(=O)C(C)(C)[C@@H]5CC[C@@]4(C)[C@]2(C)CC3)CC1	1.89 µM	5.29 µM	1.46 µM	2.77 µM	2.67 µM	1.64 µM	3.13 µM	1.87 µM	3.66 µM	1.55 µM	2.88 µM	1.73 µM	3.43 µM	1.75 µM	3.14 µM	1.88 µM	5.91 µM	2.11 µM	5.62 µM	1.27 µM
